Data published in patent publication US12630512B2, “Agents for differentiating stem cells and treating cancer” (Minerva Biotechnologies Corporation, priority 2017, dated 2026).

Key:
micro-RNA-145 = assay: RT-PCR measurement of miR-145 in naïve state stem cells; format: cell-based, human; details: treated for 72 hours (FIG. 91A-91C)
Protocol: FIGS. 91A-91C show graphs of RT-PCR measurement of naïve state stem cells treated for 72 hours with compounds of the invention at the indicated concentrations, wherein the gene that is measured is micro-RNA-145, which is a harbinger of stem cell differentiation.
We used RT-PCR to measure changes in the expression of some of these super-enhancer genes, AXIN2, which is a surrogate for activated β-catenin, miR-145, MUC1 and MUC1* ligands NME7AB and NME7-X1. […] Thus, compounds of the invention, at least in part, inhibit tumor cell migration and invasiveness by inducing expression of genes that are critical for differentiation, some of which are super-enhancer target genes, and miR-145, while decreasing expression of β-catenin, MUC1 and its growth factor NME7AB. Novel compounds of the invention are powerful agents for the treatment or prevention of cancers and metastatic cancers. […] In one aspect of the invention, a biological sample from a patient is tested for the presence of MUC1*, NME7AB or NME7-X1, and upon finding that the patient's cancer is positive for MUC1*, NME7AB or NME7-X1, a compound of the invention is administered to the patient in an amount suitable to prevent or treat the cancer. In one instance, the patient sample is subjected to a test, such as PCR, to determine the amount of nucleic acid that encodes MUC1, NME7 or NME7-X1. […] In another aspect of the invention, the patient's cancer is considered to be MUC1* positive, NME7AB positive or NME7-X1 positive if expression of those genes is equal to or greater than 0.5% of EEF1A1 expression in those cells. In yet another aspect of the invention, the patient's cancer is considered to be MUC1* positive if the patient's tissue specimen is contacted with an antibody that binds to the PSMGFR peptide or the N-10 peptide and stains the tissue with a pathologist's standard score 1-4 (“+−++++”). […]

T47D breast cancer cells = assay: Cancer cell migration assay (wound healing / Platypus); format: cell-based, human; details: cell line not given, FIGS. 65-80 use T47D, 120 hours; for IC50: Homo sapiens, read-out: IC50 of inhibition of cancer cell migration
Source text: Potent cancer cell migration is characteristic of cancer cell invasion of other tissues and of metastasis. Typical migration assays involve coating a cell culture plate with fibronectin, collagen or the like, plating cancer cells and making a scar across through the cells and measuring the time it takes for the cancer cells to invade the void space. An alternative approach that gives more reliable data is the Platypus System which is a special multi-well cell culture plate with a juxtaposed set of plugs that block off a circle in the center of each well. Cancer cells are plated while the plugs are in place, then they are removed after the cells attach to the plate surface. […] In our cancer cell migration assays, the number of cells that have migrated into the empty space is quantified using Image J software. The effects of known anti-migration compounds are compared to the anti-MUC1* Fab E6 and the first few small molecule leads. The effect of two novel small molecules MN1186 and MN1194, compared to the known anti-migration molecule SU11274, is shown in FIG. 22A-22U. FIG. 22V is a graph showing the measured inhibition of cancer cell migration at time 0, 24 hours or 48 hours for a number of compounds. […] FIG. 22X is a graph showing how IC50's of the small molecules of the invention were measured and calculated.
Percent inhibition of cancer cell migration was performed in a wound healing assay. The percent area that the invading cancer cells occupied, in the presence of a drug candidate compared to the controls, was quantified by Image J cell software which enables cell counting from photographs. IC50's were calculated by performing migration experiments at several compound concentrations and then applying Hill's equation. Inhibition of cancer cell proliferation was quantified by automated cell counting in the presence or absence of a drug candidate. Here, the inhibition of cancer cell proliferation was scored 1 if proliferation was inhibited by 25%, 2 if inhibited by […] and 4 for the highest degree of inhibition of proliferation, and 0 for the lowest. The effect of the drug candidates on stem cell pluripotency or proliferation was scored by eye, based on cell morphology and cell density, with 0 being no change in morphology or cell number and 4 being the most profound effect, with the stem cells taking on the morphology of a differentiating cell, along with much fewer cells indicative of inhibition of proliferation. As an example, FIGS. 30A-30F show photographs of naïve stem cell, primed stem cell and fibroblast controls. FIGS. 31A-31F show the effect of compounds of the invention on naïve state stem cells, where the number of ‘+’ signs indicates the score from 0-4 of ability of compound to inhibit pluripotency, proliferation of naïve stem cells or ability to induce their differentiation. […] FIGS. 36-44 and 65-87 show photographs and IC50 graphs of the compounds of the invention, inhibiting cancer cell migration and invasion. Cancer cell migration is a hallmark of metastatic cancer.
For the cancer cell migration experiment cancer cells were plated at varying densities into an Oris Cell Migration Assay Collagen-1 coated 96-well plate (Platypus Technologies LLC, Madison, WI). The Collagen-1 coated 96-well plate incorporates a specific vacuum plug which attaches to the bottom of each well, creating an area in which the cells cannot grow into. Once the cells have been plated at high densities into each well, they are allotted an 18-24 hour time period to attach to the bottom of the wells. Post-24 hour plugs are removed from the plate and then small molecule analogs are added to the wells. Images are taken of each well and represent time 0 (T=0) for each well. Images are taken of the wells at the 24, 48, 72, 96 and 120 hour time points. Data analysis is conducted using the images taken at these specific time point. […]

| SMILES | expression of miR-145 in naïve state stem cells (micro-RNA-145) | IC50 (T47D breast cancer cells) [nM] | inhibited cancer cell migration (T47D breast cancer cells) [%] |
| --- | --- | --- | --- |
| CN(C[C@H]1CC[C@H](C(=O)N2CCc3c([nH]c4ccccc34)C2C2CC2)CC1)C(=O)NC(C)(C)C (stereo partly drawn) [MN1413] | increased expression of miR-145 | 10 | 83 |
| C[C@@H]1Cc2c([nH]c3ccccc23)CN1C(=O)C1CCC(CN(C)C(=O)NC(C)(C)C)CC1 (stereo partly drawn) [MN1423] | increased expression of miR-145 | 12 | 84 |
| CN(CC1CCC(C(=O)N2CCC(c3ccncc3)CC2)CC1)C(=O)OC(C)(C)C (stereo not drawn) [MN1428, Tert-butyl methyl((4-(4-(pyridin-4-yl)piperidine-1-carbonyl)cyclohexyl)methyl)carbamate] | increased expression of miR-145 | 7 | 79 |
